Measured values as given in ChEMBL document CHEMBL2216752, “Carnitine palmitoyltransferase (CPT) modulators: a medicinal chemistry perspective on 35 years of research” (J Med Chem, 2011).
Blank lines part the entries; values can stand above or below the compound they belong to.

Columns and labels:
Mus musculus [1] = test: Reduction in blood glucose level STZ-treated mouse at 1 mmol/kg, po measured 6 to 12 hrs post dose; format: functional; design: scale not given: the % may be the effect or the level left
Mus musculus [2] = test: Inhibition of [14C]palmitate oxidation to CO2 in mouse at 0.1 mmol/kg, ip; format: functional
[3] = Inhibition of carnitine palmitoyltransferase in fasted rat detergent lysed liver mitochondria by DTNB based spectrophotometric assay
Mus musculus [4] = test: Reduction in glucose level in db/db mouse at 80 mg/kgl/day, po for 12 days; format: functional; design: scale not given: the % may be the effect or the level left; details: dose 80 mg/kg
Cynomolgus monkey = test: Inhibition of ketogenesis in fasted po dosed cynomolgus monkey; format: functional; details: Macaca fascicularis
Rattus norvegicus [5] = test: Reduction in glucose production in Sprague-Dawley rat at 5 to 25 pmol, icv administered as one or two single doses; format: functional; design: scale not given: the % may be the effect or the level left
Mus musculus [6] = test: Reduction in blood glucose level in db/db mouse at 50 mg/kg, po bid for 45 days; format: functional; design: scale not given: the % may be the effect or the level left
Mus musculus [7] = test: Increase in circulating FFA level in db/db mouse at 50 mg/kg, po bid for 45 days; format: functional
Mus musculus [8] = test: Increase in liver TG level in db/db mouse at 50 mg/kg, po bid for 45 days; format: functional
Mus musculus [9] = test: Reduction in water consumption in db/db mouse at 50 mg/kg, po bid for 45 days; format: functional; design: scale not given: the % may be the effect or the level left
Mus musculus [10] = test: Reduction in serum fructosamine level in db/db mouse at 50 mg/kg, po bid for 45 days; format: functional; design: scale not given: the % may be the effect or the level left
Mus musculus [11] = test: Reduction in liver glycogen level in db/db mouse at 50 mg/kg, po bid for 45 days; format: functional; design: scale not given: the % may be the effect or the level left
Mus musculus [12] = test: Reduction in serum glucose in db/db mouse at 50 mg/kg, po bid for 45 days; format: functional; design: scale not given: the % may be the effect or the level left
[13] = Inhibition of carnitine palmitoyltransferase in rat heart mitochondria assessed as conversion of [14C]palmitic acid to [14C]palmitoylcarnitine by radiometric assay
[14] = Inhibition of carnitine palmitoyltransferase in rat liver mitochondria assessed as conversion of [14C]palmitic acid to [14C]palmitoylcarnitine by radiometric assay
[15] = Inhibition of rat FAO
[16] = Inhibition of human FAO
[17] = molecular target: T1, Carnitine O-palmitoyltransferase 2, mitochondrial (Homo sapiens, UniProt P23786); test: Inhibition of human CPT2
T1 sequence (P23786 whole entry): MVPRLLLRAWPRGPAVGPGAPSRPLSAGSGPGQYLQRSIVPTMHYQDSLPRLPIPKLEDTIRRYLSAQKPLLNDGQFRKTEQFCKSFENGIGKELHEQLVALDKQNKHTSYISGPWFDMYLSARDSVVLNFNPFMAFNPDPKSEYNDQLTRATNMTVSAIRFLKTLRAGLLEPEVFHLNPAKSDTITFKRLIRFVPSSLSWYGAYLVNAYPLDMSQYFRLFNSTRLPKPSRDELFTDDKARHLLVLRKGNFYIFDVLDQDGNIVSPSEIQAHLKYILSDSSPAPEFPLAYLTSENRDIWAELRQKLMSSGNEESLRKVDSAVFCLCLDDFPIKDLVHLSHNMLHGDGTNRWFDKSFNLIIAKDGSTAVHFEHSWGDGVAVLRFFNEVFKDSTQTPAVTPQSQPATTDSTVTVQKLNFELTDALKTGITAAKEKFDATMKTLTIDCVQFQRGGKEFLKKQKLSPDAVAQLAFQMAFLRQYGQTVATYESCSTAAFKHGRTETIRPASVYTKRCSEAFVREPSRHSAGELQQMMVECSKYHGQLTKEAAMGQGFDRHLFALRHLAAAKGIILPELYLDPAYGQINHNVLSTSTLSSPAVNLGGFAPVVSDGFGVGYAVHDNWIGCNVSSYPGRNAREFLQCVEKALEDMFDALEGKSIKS

Homo sapiens [18] = test: Reduction in fasting insulin in NIDD patient at 450 mg/day, po for 15 days; format: functional; design: scale not given: the % may be the effect or the level left
Homo sapiens [19] = test: Reduction in HOMA index in NIDD patient at 450 mg/day, po for 15 days; format: functional; design: scale not given: the % may be the effect or the level left
[20] = Half life in NIDD patient at 150 to 450 mg/day, po for 15 days; format: ADME, organism-based; details: human, in vivo
[21] = molecular target: T2, Carnitine O-palmitoyltransferase 2, mitochondrial (Rattus norvegicus, UniProt P18886); test: Inhibition of rat CPT2
T2 sequence (P18886 whole entry): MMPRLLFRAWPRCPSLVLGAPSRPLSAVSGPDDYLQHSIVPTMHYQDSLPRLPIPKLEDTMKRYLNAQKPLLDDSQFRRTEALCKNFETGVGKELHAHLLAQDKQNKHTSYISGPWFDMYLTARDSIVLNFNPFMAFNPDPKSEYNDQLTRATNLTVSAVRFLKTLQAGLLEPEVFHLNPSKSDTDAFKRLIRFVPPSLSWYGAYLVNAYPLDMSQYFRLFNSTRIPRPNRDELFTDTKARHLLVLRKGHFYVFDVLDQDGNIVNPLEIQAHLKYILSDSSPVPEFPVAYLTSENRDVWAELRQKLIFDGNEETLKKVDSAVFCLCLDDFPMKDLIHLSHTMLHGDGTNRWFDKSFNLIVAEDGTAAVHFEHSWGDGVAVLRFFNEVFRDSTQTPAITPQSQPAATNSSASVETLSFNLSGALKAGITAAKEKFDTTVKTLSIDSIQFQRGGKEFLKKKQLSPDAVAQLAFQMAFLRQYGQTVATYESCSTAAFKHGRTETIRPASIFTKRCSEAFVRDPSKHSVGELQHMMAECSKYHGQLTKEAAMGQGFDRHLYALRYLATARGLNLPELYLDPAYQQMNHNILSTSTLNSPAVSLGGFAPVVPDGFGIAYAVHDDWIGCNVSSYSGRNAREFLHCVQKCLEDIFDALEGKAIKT

[22] = Critical micelle concentration of compound; format: physicochemical
[23] = Competitive inhibition of carnitine palmitoyltransferase using palmitoyl-CoA
[24] = molecular target: T3, Carnitine O-palmitoyltransferase 1, muscle isoform (Homo sapiens, UniProt Q92523); test: Inhibition of human CPT1B
T3 sequence (Q92523 whole entry): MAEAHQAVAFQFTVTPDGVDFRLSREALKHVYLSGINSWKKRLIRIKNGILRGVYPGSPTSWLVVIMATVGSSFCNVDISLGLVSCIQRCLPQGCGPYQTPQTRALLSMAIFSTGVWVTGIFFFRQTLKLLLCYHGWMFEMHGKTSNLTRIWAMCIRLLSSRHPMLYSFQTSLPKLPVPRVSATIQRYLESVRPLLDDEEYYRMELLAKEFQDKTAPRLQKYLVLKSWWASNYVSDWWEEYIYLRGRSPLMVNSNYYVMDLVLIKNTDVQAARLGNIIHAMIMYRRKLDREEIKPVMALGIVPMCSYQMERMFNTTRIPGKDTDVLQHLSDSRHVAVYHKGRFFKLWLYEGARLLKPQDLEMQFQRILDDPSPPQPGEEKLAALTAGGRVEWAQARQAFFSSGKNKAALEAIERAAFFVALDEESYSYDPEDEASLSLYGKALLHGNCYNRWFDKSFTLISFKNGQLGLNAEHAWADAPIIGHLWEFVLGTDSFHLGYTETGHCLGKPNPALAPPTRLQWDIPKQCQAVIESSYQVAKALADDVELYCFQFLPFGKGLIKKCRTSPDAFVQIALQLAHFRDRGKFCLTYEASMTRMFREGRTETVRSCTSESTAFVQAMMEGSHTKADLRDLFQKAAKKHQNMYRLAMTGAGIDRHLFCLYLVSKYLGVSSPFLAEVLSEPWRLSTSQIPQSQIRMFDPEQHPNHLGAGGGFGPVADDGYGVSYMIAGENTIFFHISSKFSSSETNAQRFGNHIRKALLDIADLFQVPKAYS

[25] = molecular target: T4, Carnitine O-palmitoyltransferase 1, liver isoform (Homo sapiens, UniProt P50416); test: Inhibition of human CPT1A
T4 sequence (P50416 whole entry): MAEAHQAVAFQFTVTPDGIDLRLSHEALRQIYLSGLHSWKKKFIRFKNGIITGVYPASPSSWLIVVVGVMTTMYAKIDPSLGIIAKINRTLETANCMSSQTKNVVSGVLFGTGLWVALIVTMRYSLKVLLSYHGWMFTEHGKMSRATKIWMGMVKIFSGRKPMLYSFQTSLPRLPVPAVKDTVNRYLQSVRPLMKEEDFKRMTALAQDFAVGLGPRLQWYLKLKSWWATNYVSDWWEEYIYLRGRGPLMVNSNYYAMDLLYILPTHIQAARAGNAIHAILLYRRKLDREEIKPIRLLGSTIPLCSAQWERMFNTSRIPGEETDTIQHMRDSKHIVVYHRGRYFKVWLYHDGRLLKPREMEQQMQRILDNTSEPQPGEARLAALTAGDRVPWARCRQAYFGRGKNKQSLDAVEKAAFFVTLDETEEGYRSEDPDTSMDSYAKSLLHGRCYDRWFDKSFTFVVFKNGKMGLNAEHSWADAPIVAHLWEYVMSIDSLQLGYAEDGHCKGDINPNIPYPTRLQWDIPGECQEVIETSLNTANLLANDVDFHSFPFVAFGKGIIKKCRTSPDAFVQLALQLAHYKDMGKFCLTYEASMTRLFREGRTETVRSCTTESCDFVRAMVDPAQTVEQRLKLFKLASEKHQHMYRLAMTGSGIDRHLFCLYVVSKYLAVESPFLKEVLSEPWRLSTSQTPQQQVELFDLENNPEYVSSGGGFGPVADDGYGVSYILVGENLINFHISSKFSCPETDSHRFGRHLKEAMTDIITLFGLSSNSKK

Rattus norvegicus [26] = test: Reduction in KB level po dosed 24 hrs fasted rat measured 6 hrs post dose; format: functional
Mus musculus [27] = test: Reduction in serum glucose level db/db mouse at 100 mg/kg/day for 30 days; format: functional; design: scale not given: the % may be the effect or the level left
Rattus norvegicus [28] = organism: Rattus norvegicus; test: Inhibition of CPT1A activity in 48 hrs fasted rat; format: functional
Rattus norvegicus [29] = organism: Rattus norvegicus; test: Reduction in ketone bodies in 48 hrs fasted rat; format: functional; design: scale not given: the % may be the effect or the level left
Rattus norvegicus [30] = test: Reduction in KB level in Sprague-Dawley rat at 0.44 mg/kg, po; format: functional; design: scale not given: the % may be the effect or the level left
Rattus norvegicus [31] = test: Reduction in glucose level in Sprague-Dawley rat at 88 mg/kg, po; format: functional; design: scale not given: the % may be the effect or the level left
[32] = Inhibition of carnitine palmitoyltransferase in 18 hr fasted rat hepatocytes; format: cell-based; details: hepatocyte
[33] = Inhibition of carnitine palmitoyltransferase in 18 hr fasted rat liver homogenates; format: tissue-based
Sus scrofa = organism: Sus scrofa; test: Increase in glucose metabolic clearance rate in pig using [U14C,3-3H]glucose; format: functional

Structure (SMILES): CCCCCCCCCCCCCCCC(=O)NC(CC(=O)[O-])C[N+](C)(C)C (racemic)
Activity (Mus musculus [1]): 45%
inhibition in vivo at 100 µmol/kg (Mus musculus [2]): 46%
IC50 [3]: 50 nM

Structure (SMILES): CCCCCCCCCCCCCCNC(=O)N[C@H](CC(=O)[O-])C[N+](C)(C)C
Activity (Mus musculus [4]): 26%
ED50 (Cynomolgus monkey): 0.5 mg/kg
Activity (Rattus norvegicus [5]): 45%
Activity (Mus musculus [6]): 39%
Activity (Mus musculus [7]): 20%
Activity (Mus musculus [8]): 38%
Activity (Mus musculus [9]): 30%
Activity (Mus musculus [10]): 30%
Activity (Mus musculus [11]): 25%
Activity (Mus musculus [12]): 25%
IC50 [13]: 43400 nM
IC50 [14]: 1100 nM
IC50 [15]: 980 nM
IC50 [16]: 4000 nM
IC50 [17]: 160 nM
Activity (Homo sapiens [18]): 12%
Activity (Homo sapiens [19]): 25%
half-life [20]: 25 h
IC50 [21]: 380 nM
CMC [22]: 29 µM
Ki [23]: 360 nM
IC50 [24]: 5400 nM
IC50 [25]: 1050 nM

Structure (SMILES): CCCCCCCCCCCCCC[C@]1(C(=O)OC)CO1 (racemic)
inhibition (INH) (Rattus norvegicus [28]): 90%
Activity (Rattus norvegicus [29]): 90%

Structure (SMILES): CCCCCCCCCCCCCCOP(=O)([O-])O[C@H](CC(=O)O)C[N+](C)(C)C
Activity (Rattus norvegicus [30]): 77%
Activity (Rattus norvegicus [31]): 20%
IC50 [13]: 62000 nM
IC50 [14]: 17400 nM
IC50 [32]: 3000 nM
IC50 [33]: 36000 nM
Ki [23]: 3600 nM

Now from value to compound, other results behind:

IC50 [13]: 3400 nM
IC50 [14]: 700 nM
Ki [23]: 250 nM
Structure (SMILES): CCCCCCCCCCCCS(=O)(=O)N[C@H](CC(=O)[O-])C[N+](C)(C)C
ED50 (Rattus norvegicus [26]): 20 mg/kg
Activity (Mus musculus [27]): 28%

IC50 [15]: 340 nM
IC50 [16]: 290 nM
Structure (SMILES): CCOC(=O)[C@@]1(CCCCCCOc2ccc(Cl)cc2)CO1 [ETOMOXIR]
Activity (Sus scrofa): 126%
